Experimental data as given in patent publication US10781211B2, “Spirocycle compounds and methods of making and using same” (Lundbeck La Jolla Research Center, Inc., priority 2016, dated 2020).

Legend:
Format in all cases: in vivo
Settings in all cases: 5 mg/kg oral gavage
[1] = molecular target: MAGL (Mus musculus (Mouse), UniProt O35678); test: Mouse brain proteomes from inhibitor treated mice (oral gavage, sacrifice 4 h after administration, ABPP analysis)
Outline: (§1)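 Values give % inhibition in brain after a 5 mg/kg oral gavage dose to wild-type C57Bl/6J mice, with vehicle e.g. PEG400/Ethanol/PBS (7/2/1). Animals were killed 4 h post-dose and brain proteome activity was read by ABPP.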

[2] = molecular target: FAAH (Mus musculus (Mouse), UniProt O08914); test: Mouse brain proteomes from inhibitor treated mice (oral gavage, sacrifice 4 h after administration, ABPP analysis), FAAH
FAAH, sequence (O08914 whole entry): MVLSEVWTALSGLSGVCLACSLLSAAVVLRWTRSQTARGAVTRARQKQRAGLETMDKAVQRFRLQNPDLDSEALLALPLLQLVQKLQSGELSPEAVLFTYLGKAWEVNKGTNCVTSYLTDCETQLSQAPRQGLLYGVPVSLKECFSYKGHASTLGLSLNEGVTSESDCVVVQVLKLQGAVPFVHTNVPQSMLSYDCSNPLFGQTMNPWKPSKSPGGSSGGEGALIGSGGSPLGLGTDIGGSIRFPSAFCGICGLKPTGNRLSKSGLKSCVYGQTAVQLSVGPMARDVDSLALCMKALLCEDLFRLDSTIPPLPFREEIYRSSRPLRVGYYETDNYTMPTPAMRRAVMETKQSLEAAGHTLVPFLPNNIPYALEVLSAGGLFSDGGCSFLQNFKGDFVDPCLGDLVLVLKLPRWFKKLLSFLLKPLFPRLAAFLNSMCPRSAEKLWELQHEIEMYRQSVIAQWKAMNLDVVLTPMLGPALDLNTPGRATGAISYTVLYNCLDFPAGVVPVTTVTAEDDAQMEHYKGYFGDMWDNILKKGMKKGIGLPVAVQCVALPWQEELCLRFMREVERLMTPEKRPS
Outline: as §1

[3] = molecular target: ABHD6 (Mus musculus (Mouse), UniProt Q8R2Y0); test: Mouse brain proteomes from inhibitor treated mice (oral gavage, sacrifice 4 h after administration, ABPP analysis), ABHD6
ABHD6, sequence (Q8R2Y0 whole entry): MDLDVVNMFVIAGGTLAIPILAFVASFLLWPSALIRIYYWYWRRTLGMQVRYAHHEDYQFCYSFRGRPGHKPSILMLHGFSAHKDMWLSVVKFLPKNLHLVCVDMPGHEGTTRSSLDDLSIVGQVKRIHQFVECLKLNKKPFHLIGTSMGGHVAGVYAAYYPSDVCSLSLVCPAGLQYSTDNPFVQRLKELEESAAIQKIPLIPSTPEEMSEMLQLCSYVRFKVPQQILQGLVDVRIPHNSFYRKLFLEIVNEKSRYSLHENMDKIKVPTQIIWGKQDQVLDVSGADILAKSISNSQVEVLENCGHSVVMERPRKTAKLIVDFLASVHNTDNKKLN
Outline: as §1

MAGL, sequence (O35678 whole entry): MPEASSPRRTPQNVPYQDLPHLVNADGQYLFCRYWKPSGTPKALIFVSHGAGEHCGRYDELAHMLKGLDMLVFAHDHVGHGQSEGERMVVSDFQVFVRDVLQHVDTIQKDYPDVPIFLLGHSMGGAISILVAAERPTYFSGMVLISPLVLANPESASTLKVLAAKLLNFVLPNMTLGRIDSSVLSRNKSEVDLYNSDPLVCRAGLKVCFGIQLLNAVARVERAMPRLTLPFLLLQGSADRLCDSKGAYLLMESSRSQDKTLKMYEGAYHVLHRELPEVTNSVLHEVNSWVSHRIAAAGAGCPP

| SMILES | MAGL % Inh 5 mg/kg (mouse) [1] | FAAH % Inh 5 mg/kg (mouse) [2] | ABHD6 % Inh 5 mg/kg (mouse) [3] |
| --- | --- | --- | --- |
| O=C(OC(C(F)(F)F)C(F)(F)F)N1CCC2(CCCN2Cc2ccc(Cl)cc2N2CCOCC2)CC1 [Example 77, 1,1,1,3,3,3-Hexafluoropropan-2-yl 1-(4-chloro-2-morpholinobenzyl)-1,8-diazaspiro[4.5]decane-8-carboxylate] | ### (### is ≥ 75%) | # (# is < 25%) | # (# is < 25%) |
| O=C(OC(C(F)(F)F)C(F)(F)F)N1CCC2(CCCN2Cc2cccc(N3CCOCC3)c2Cl)CC1 [Example 79, 1,1,1,3,3,3-Hexafluoropropan-2-yl 1-(2-chloro-3-morpholinobenzyl)-1,8-diazaspiro[4.5]decane-8-carboxylate] | ### (### is ≥ 75%) | # (# is < 25%) | # (# is < 25%) |
| O=C(OC(C(F)(F)F)C(F)(F)F)N1CCC2(CCCN2Cc2cccc(N3CCCC3)c2Cl)CC1 [Example 81, 1,1,1,3,3,3-Hexafluoropropan-2-yl 1-(2-chloro-3-(pyrrolidin-1-yl)benzyl)-1,8-diazaspiro[4.5]decane-8-carboxylate] | ### (### is ≥ 75%) | # (# is < 25%) | # (# is < 25%) |
| O=C(OC(C(F)(F)F)C(F)(F)F)N1CCC2(CCCN2Cc2cccc(N3CC4CCC(C3)O4)c2Cl)CC1 [Example 82, 1,1,1,3,3,3-Hexafluoropropan-2-yl 1-(3-(8-oxa-3-azabicyclo[3.2.1]octan-3-yl)-2-chlorobenzyl)-1,8-diazaspiro[4.5]decane-8-carboxylate] | ### (### is ≥ 75%) | # (# is < 25%) | # (# is < 25%) |
| Cc1c(CN2CCCC23CCN(C(=O)OC(C(F)(F)F)C(F)(F)F)CC3)cccc1N1CCCCC1 [Example 84, 1,1,1,3,3,3-Hexafluoropropan-2-yl 1-(2-methyl-3-(piperidin-1-yl)benzyl)-1,8-diazaspiro[4.5]decane-8-carboxylate] | ### (### is ≥ 75%) | # (# is < 25%) | # (# is < 25%) |
| Cc1c(CN2CCCC23CCN(C(=O)OC(C(F)(F)F)C(F)(F)F)CC3)cccc1N1CCCC1 [Example 85, 1,1,1,3,3,3-Hexafluoropropan-2-yl 1-(2-methyl-3-(pyrrolidin-1-yl)benzyl)-1,8-diazaspiro[4.5]decane-8-carboxylate] | ### (### is ≥ 75%) | # (# is < 25%) | # (# is < 25%) |
| Cc1c(CN2CCCC23CCN(C(=O)OC(C(F)(F)F)C(F)(F)F)CC3)cccc1N1CC2CCC(C1)O2 [Example 86, 1,1,1,3,3,3-Hexafluoropropan-2-yl 1-(3-(8-oxa-3-azabicyclo[3.2.1]octan-3-yl)-2-methylbenzyl)-1,8-diazaspiro[4.5]decane-8-carboxylate] | ### (### is ≥ 75%) | # (# is < 25%) | # (# is < 25%) |
| CS(=O)(=O)N1CCN(c2cc(C(F)(F)F)ccc2CN2CCCC23CCN(C(=O)OC(C(F)(F)F)C(F)(F)F)CC3)CC1 [Example 89, 1,1,1,3,3,3-Hexafluoropropan-2-yl 1-(2-(4-(methylsulfonyl)piperazin-1-yl)-4-(trifluoromethyl)benzyl)-1,8-diazaspiro[4.5]decane-8-carboxylate] | # (# is < 25%) | # (# is < 25%) | # (# is < 25%) |
| O=C(OC(C(F)(F)F)C(F)(F)F)N1CCC2(CCCN2Cc2ccc(C(F)(F)F)cc2N2CCC(F)CC2)CC1 [Example 91, 1,1,1,3,3,3-Hexafluoropropan-2-yl 1-(2-(4-fluoropiperidin-1-yl)-4-(trifluoromethyl)benzyl)-1,8-diazaspiro[4.5]decane-8-carboxylate] | ### (### is ≥ 75%) | # (# is < 25%) | # (# is < 25%) |
| CC(=O)NC1CCN(c2cc(C(F)(F)F)ccc2CN2CCCC23CCN(C(=O)OC(C(F)(F)F)C(F)(F)F)CC3)CC1 [Example 93, 1,1,1,3,3,3-Hexafluoropropan-2-yl 1-(2-(4-acetamidopiperidin-1-yl)-4-(trifluoromethyl)benzyl)-1,8-diazaspiro[4.5]decane-8-carboxylate] | ### (### is ≥ 75%) | # (# is < 25%) | # (# is < 25%) |
| CS(=O)(=O)NC1CCN(c2cc(C(F)(F)F)ccc2CN2CCCC23CCN(C(=O)OC(C(F)(F)F)C(F)(F)F)CC3)CC1 [Example 94, 1,1,1,3,3,3-Hexafluoropropan-2-yl 1-(2-(4-(methylsulfonamido)piperidin-1-yl)-4-(trifluoromethyl)benzyl)-1,8-diazaspiro[4.5]decane-8-carboxylate] | # (# is < 25%) | # (# is < 25%) | # (# is < 25%) |
| O=C(OC(C(F)(F)F)C(F)(F)F)N1CCC2(CCCN2Cc2ccc(C(F)(F)F)cc2N2CCC2)CC1 [Example 96, 1,1,1,3,3,3-Hexafluoropropan-2-yl 1-(2-(azetidin-1-yl)-4-(trifluoromethyl)benzyl)-1,8-diazaspiro[4.5]decane-8-carboxylate] | ### (### is ≥ 75%) | # (# is < 25%) | # (# is < 25%) |
| O=C(OC(C(F)(F)F)C(F)(F)F)N1CCC2(CCCN2Cc2ccc(C(F)(F)F)cc2N2CC3COCC3C2)CC1 (stereo not drawn) [Example 97, 1,1,1,3,3,3-Hexafluoropropan-2-yl 1-(2-(tetrahydro-1H-furo[3,4-c]pyrrol-5(3H)-yl)-4-(trifluoromethyl)benzyl)-1,8-diazaspiro[4.5]decane-8-carboxylate] | ### (### is ≥ 75%) | # (# is < 25%) | # (# is < 25%) |

Results, then the molecule that gave them:

| MAGL % Inh 5 mg/kg (mouse) [1] | FAAH % Inh 5 mg/kg (mouse) [2] | ABHD6 % Inh 5 mg/kg (mouse) [3] | SMILES |
| --- | --- | --- | --- |
| ### (### is ≥ 75%) | # (# is < 25%) | # (# is < 25%) | CC(=O)N1CCN(c2cc(Cl)ccc2CN2CCCC23CCN(C(=O)OC(C(F)(F)F)C(F)(F)F)CC3)CC1 [Example 99, 1,1,1,3,3,3-Hexafluoropropan-2-yl 1-(2-(4-acetylpiperazin-1-yl)-4-chlorobenzyl)-1,8-diazaspiro[4.5]decane-8-carboxylate] |
| ### (### is ≥ 75%) | # (# is < 25%) | # (# is < 25%) | CS(=O)(=O)N1CCN(c2cc(Cl)ccc2CN2CCCC23CCN(C(=O)OC(C(F)(F)F)C(F)(F)F)CC3)CC1 [Example 100, 1,1,1,3,3,3-Hexafluoropropan-2-yl 1-(4-chloro-2-(4-(methylsulfonyl)piperazin-1-yl)benzyl)-1,8-diazaspiro[4.5]decane-8-carboxylate] |
| ### (### is ≥ 75%) | # (# is < 25%) | # (# is < 25%) | O=C(OC(C(F)(F)F)C(F)(F)F)N1CCC2(CCCN2Cc2ccc(Cl)cc2N2CCC(F)(F)CC2)CC1 [Example 101, 1,1,1,3,3,3-Hexafluoropropan-2-yl 1-(4-chloro-2-(4,4-difluoropiperidin-1-yl)benzyl)-1,8-diazaspiro[4.5]decane-8-carboxylate] |
| ### (### is ≥ 75%) | # (# is < 25%) | # (# is < 25%) | O=C(OC(C(F)(F)F)C(F)(F)F)N1CCC2(CCCN2Cc2ccc(Cl)cc2N2CCC(F)CC2)CC1 [Example 102, 1,1,1,3,3,3-Hexafluoropropan-2-yl 1-(4-chloro-2-(4-fluoropiperidin-1-yl)benzyl)-1,8-diazaspiro[4.5]decane-8-carboxylate] |
| # (# is < 25%) | # (# is < 25%) | # (# is < 25%) | CS(=O)(=O)NC1CCN(c2cc(Cl)ccc2CN2CCCC23CCN(C(=O)OC(C(F)(F)F)C(F)(F)F)CC3)CC1 [Example 105, 1,1,1,3,3,3-Hexafluoropropan-2-yl 1-(4-chloro-2-(4-(methylsulfonamido)piperidin-1-yl)benzyl)-1,8-diazaspiro[4.5]decane-8-carboxylate] |
| ### (### is ≥ 75%) | # (# is < 25%) | # (# is < 25%) | O=C(OC(C(F)(F)F)C(F)(F)F)N1CCC2(CCCN2Cc2ccc(Cl)cc2N2CC3COCC3C2)CC1 (stereo not drawn) [Example 108, 1,1,1,3,3,3-Hexafluoropropan-2-yl 1-(4-chloro-2-(tetrahydro-1H-furo[3,4-c]pyrrol-5(3H)-yl)benzyl)-1,8-diazaspiro[4.5]decane-8-carboxylate] |
| ### (### is ≥ 75%) | # (# is < 25%) | ### (### is ≥ 75%) | O=C(O)C1CCN(c2cc(C(F)(F)F)ccc2CN2CCC3(CCN(C(=O)OC(C(F)(F)F)C(F)(F)F)CC3)C2)CC1 [Example 119, 1-(2-((8-(((1,1,1,3,3,3-Hexafluoropropan-2-yl)oxy)carbonyl)-2,8-diazaspiro[4.5]decan-2-yl)methyl)-5-(trifluoromethyl)phenyl)piperidine-4-carboxylic acid] |
| ### (### is ≥ 75%) | # (# is < 25%) | # (# is < 25%) | O=C(O)C1CCN(c2cc(Cl)ccc2CN2CCCC23CCN(C(=O)OC(C(F)(F)F)C(F)(F)F)CC3)CC1 [Example 120, 1-(5-Chloro-2-((8-(((1,1,1,3,3,3-hexafluoropropan-2-yl)oxy)carbonyl)-1,8-diazaspiro[4.5]decan-1-yl)methyl)phenyl)piperidine-4-carboxylic acid] |
